In patent US12630523B2, “Isoquinoline derivatives for use as antiviral and antitumour agents” (priority 2021, dated 2026):

How the values were obtained:
[1] = target: T1, HPV16 E7 protein (Human papillomavirus type 16, UniProt P03129); format: cell-based; conditions: CaSki cells; adjusted degradation, CHX steady state set to 100% degradation
T1 construct: endogenous in cells; host or cells: CaSki cells (HPV16-positive cervical carcinoma)
Method: For intracellular antibody labeling, 0.5×10^6 cells are washed once with 1 ml ice-cold PBS. Cells are centrifuged at 350×g for 5 minutes at 4° C. and then fixed in 1% paraformaldehyde (1 ml/10^6 cells) for 20 minutes at 4° C. Cells are washed with 1 ml ice-cold PBS and centrifuged at 350×g for 5 minutes at 4° C. To permeabilize cells, 100% ice-cold methanol (1 ml/10^6 cells) is added to the cells and incubated for 20 minutes at 4° C. followed by centrifugation at 350×g for 5 minutes at 4° C. Cells are washed with 1 ml ice-cold PBS, centrifuged at 350×g for 5 minutes at 4° C. and resuspended in 0.1% saponin+2% FBS in PBS (ice-cold). Cells are left for 20-30 minutes at room temperature to reduce the background signal and then centrifuged at 350×g for 5 minutes at 4° C. The primary antibody (mAb_HPV16E7-1 (VS13004); concentration 1 μg/μl) is diluted in 0.1% saponin+2% FBS (dilution 0.25 μg/50 μl of incubation buffer per 1×10^6 cells (5 ng/μl)). Cells are incubated with primary antibody for 30 minutes at room temperature, washed with 0.1% saponin+2% FBS and centrifuged at 350×g for 5 minutes at 4° C. The secondary antibody (FITC conjugated goat anti-mouse IgG1-IgM, BD, cat. #555988) is diluted in 0.1% saponin+2% FBS (dilution 1:50). Cells are incubated with secondary antibody for 30 minutes at room temperature, washed once with 0.1% saponin+2% FBS, once with PBS and centrifuged at 350×g for 5 minutes at 4° C.
Cells are resuspended in 700 μl PBS prior to CF analysis with a Beckman Coulter FC 500 MPL, (excitation laser 488 nm). Data analysis is done using the Beckman Coulter software packages MXP for acquisition and CXP for data analysis which includes MFI calculation. Detection of HPV-E7 protein expression is based on morphology back-gating of FL1 histogram (logarithmic scale) with gating for dot plot FS (Forward Scatter) log/SS (Sideward Scatter) log and gating for histograms SS log.
In order to define the level of E7 protein expression and to study the extent of E7 protein steady state level reduction in E7 expressing cells in the presence of various compounds, FC analysis is implemented using the intracellular antibody labeling procedure for monoclonal antibodies to HPV E7. E7 signal intensities are analyzed from the obtained FL1 histograms at logarithmic scale. The FL1 single histogram graph represents the variation in the mean fluorescence intensity (MFI) channel for cells treated with selected compounds compared to cells not incubated with primary antibodies but incubated with secondary, which allows to test for auto-fluorescence, and non-compound treated cells as controls. Non-primary antibody-stained cells are used to set the acquisition parameters to zero. Decrease of the mean fluorescence intensity channel corresponds to a decrease in the expression of HPV16 E7 protein. Degradation of E7 in cells is calculated as percent (%) reduction in MFI(x-Me) using the following formulas: % Drel=(T−C)/T*100; i) relative degradation: % Dad=(T−C)/(T−CHX)*100; ii) adjusted degradation: • Drel=relative degradation, • Dad=adjusted degradation assuming CHX % Drel=100; • T=MFI of non-treated cells; • C=MFI of compound treated cells; • CH=MFI of cycloheximide (CHX) treated cells;
For comparison within one experiment i) the % relative degradation (Drel) is sufficient, whereas for comparison between two or more experiments ii) the adjusted degradation (Dad) is used and CHX steady state is set to a 100% degradation parameter.
1×10^6 freshly seeded CaSki cells (ATCC CRL-7915), are grown in 10 cm diameter cell culture dishes in RPMI1640, 10% FCS medium at 37° C. 5% CO2 overnight and then incubated in the presence of 10 μM Cycloheximide (CHX) 10 μM OC246 or with vehicle alone for four hours at 37° C. 5% CO2. Following this E7 protein is assessed by cytofluorimetric analysis using intracellular HPV16 E7 antibody labeling. […]

[2] = tested on: CaSki cells; assay: Cell cycle analysis using Propidium-Iodide staining (flow cytometry); format: cell-based, human; conditions: 48 hour incubation; for A*/5 μM (apoptosis as measured from total SUB G1 content) / A*/10 μM (apoptosis as measured from total SUB G1 content): no treatment 15.0; for G2/5 μM / G1/5 μM / G2/10 μM / G1/10 μM: cell cycle distribution; for G2/5 μM / G2/10 μM: no treatment 15.6; for G1/5 μM / G1/10 μM: no treatment 53.3
Method: Propidium-Iodide (PI) DNA staining is performed to facilitate cell cycle analysis. For PI-DNA staining, fixed cells and eventually antibody-stained cells are resuspended in 450 μl of PBS (per 10^6 cells) and incubated with 100 μg/ml RNase (stock 1 mg/ml, in PBS) for 10 minutes at 37° C. Cells are then incubated with 5 μg/106 cells of PI (stock 1 mg/ml in PBS) for 10 minutes at room temperature. Samples are stored at 4° C. until CF analysis.
CaSki cells were incubated with various compounds and cell cycle distribution of the cells was assessed using Propidium-Iodide staining.
In order to analyze the cytostatic versus the cytotoxic effect of OC compounds, cell cycle profiles were analyzed in vitro after 48 hour incubations using Flow Cytometry as a read out. For this a cell cycle analysis from selected OC E7 degrader compounds was conducted in CaSki cells. Using 6 well plates, 1.5×10^5 cells were seeded for each well and grown over night at 37° C. 5% CO2. For analysis of the cell cycle behavior, cells were analyzed in the presence of propidium Iodide (PI^−) by flow cytometry (FC). Briefly, cells were detached by trypsin digestion, all supernatants were included in the analysis, and fixed with 70% ice cold ethanol and stored at 4° C. until FC analysis using PI^− staining (1 mg/ml). At least 7000 events were acquired for each sample.

[3] = tested on: SARS-CoV-2 isolate BetaCov/Belgium/GHB-03021/2020; assay: microbe, parasite or virus in culture; format: cell-based; conditions: 1.25 μM (non-toxic compound concentration), n4; for inhibition at 1.25 µM: Severe acute respiratory syndrome coronavirus 2
[4] = tested on: CaSki (ATCC CRM-CRL-1550); assay: Monolayer assay using Sulphorhodamine B (SRB) staining, CaSki; format: cell-based; conditions: Homo sapiens, Ca-Ski, read-out: EC50 mean [nM]
Method: Various cell culture cells grown as monolayers are harvested from exponential growing cultures after treatment with various OC compounds at different concentrations. For this depending on the cell line, 10.000 to 30.000 cells were plated in 96-well flat-bottom microtiter plates. After a 24 h recovery period to allow cells to resume exponential growth, supernatants are discarded and 100 μl of culture medium (eight control wells/plate) or culture medium with the test compound are added by a liquid handling robotic system (Microlab® Starlet, Hamilton) and treatment continued for 72 hrs. Compounds are applied at 9 concentrations and eight wells/concentration). At least three independent experiments are performed. For SRB staining, cells are fixed with SRB01 (Tab. 5) for 1 h at 4° C. (final concentration of TCA=10%) washed with a plate washer (Hydroflex, Tecan©) for five times with H2O; and stained with 100 μl of SRB02 at room temperature for 10 min following 4 washes in SRB03 and finally 100 μl of developer solution SRB04 for 5 minutes with shaking. Optical density is assessed using a plate-reader (Sunrise, Tecan©) at 540 nm.
Concentrations required for half maximal response of the compound for cell growth inhibition (EC50) is calculated by non-linear regression (log[conc. of inhibitor] versus response (% T/C)) using the analysis software GraphPad Prism®, Prism 5 for windows, version 5.01 (GraphPad Software Inc., CA).

[5] = tested on: human cervical carcinoma (CaSki) xenograft; assay: CaSki high risk HPV16 human cervical carcinoma xenograft model; format: in vivo, nude mice
Method: The aim of this study was to assess the in vivo efficacy of OC246 and OC974 on a human cervical carcinoma (CaSki) xenograft model in nude mice. OC246 and OC974 were administered oral once daily for four times with three days off, for three cycles at 2 mg/kg/dose. Cisplatin (CDDP) was used as a reference compound with three weekly intravenous (q7dx3) administrations of 6 mg/kg.

[6] = tested on: cell signaling molecules (4E-BP1, p70 S6 kinase, Akt, PTPN14, p53, PD-L1); assay: Western blot of cell signaling molecules in CaSki cells; conditions: CaSki; for Phosphorylation of 4E-BP1 on Ser65 and the p70S6 kinase on Thr389: 6 h, order 10 μM VSP035, Torin 1, Torin 2, rapamycin, 5 μM VSP035, CGP 57380; for phosphorylation of AKT on Ser473: 6 h treatment

T1 sequence (P03129 whole entry): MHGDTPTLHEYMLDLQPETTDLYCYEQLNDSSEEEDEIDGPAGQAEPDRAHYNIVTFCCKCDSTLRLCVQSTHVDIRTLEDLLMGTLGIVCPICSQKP

In the case of `Cc1ccc(CN2C(=O)c3ccccc3[C@@H](C(=O)Nc3cccc(N4CCN(C)CC4)c3)[C@@H]2c2ccc(C(F)(F)F)nc2)cc1` (relative stereo) [OC968], the “% Dad” value [1] is reported as 37%, the “A*/5 μM (apoptosis as measured from total SUB G1 content)” value [2] is reported as 11.9% and the “A*/10 μM (apoptosis as measured from total SUB G1 content)” value [2] is reported as 11.6%. The “G2/5 μM” value [2] was 18.0%, the “G1/5 μM” value [2] was 52.7% and the “G2/10 μM” value [2] was 19.7%. For the same molecule, the “G1/10 μM” value [2] was 48.0%, the inhibition at 1.25 µM [3] was 2.09% and the EC50 [4] was 10600 nM.

With `Cc1ccc(CN2C(=O)c3ccccc3[C@@H](C(=O)Nc3ccc(N4CCN(C)CC4)cc3)[C@@H]2c2ccc(C(F)(F)F)cc2)cc1` (relative stereo) [OC972] the “% Dad” value [1] was 32%, the “A*/5 μM (apoptosis as measured from total SUB G1 content)” value [2] was 12.8% and the “A*/10 μM (apoptosis as measured from total SUB G1 content)” value [2] was 13.5%. The “G2/5 μM” value [2] was 16.9%, the “G1/5 μM” value [2] was 53.2% and the “G2/10 μM” value [2] was 15.9%. For the same molecule, the “G1/10 μM” value [2] was 48.4%, the inhibition at 1.25 µM [3] was 5.37% and the EC50 [4] was 67700 nM.

In the case of `Cc1ccc(CN2C(=O)c3ccccc3[C@@H](C(=O)Nc3cccc(N4CCOCC4)c3)[C@@H]2c2ccc(C(F)(F)F)cc2)cc1` (relative stereo) [OC973], the “% Dad” value [1] is reported as 20%, the “A*/5 μM (apoptosis as measured from total SUB G1 content)” value [2] is reported as 11.1% and the “A*/10 μM (apoptosis as measured from total SUB G1 content)” value [2] is reported as 13.0%. For the same molecule, the “G2/5 μM” value [2] was 17.6%, the “G1/5 μM” value [2] was 52.1% and the “G2/10 μM” value [2] was 11.5%. The “G1/10 μM” value [2] was 52.6%, the inhibition at 1.25 µM [3] was 0.95% and the EC50 [4] was 6720 nM.

With `CN1CCN(c2cccc(NC(=O)[C@@H]3c4ccccc4C(=O)N(Cc4ccncc4)[C@H]3c3ccc(C(F)(F)F)cc3)c2)CC1` (relative stereo) [OC975] the “% Dad” value [1] was 67%, the “A*/5 μM (apoptosis as measured from total SUB G1 content)” value [2] was 13.9% and the “A*/10 μM (apoptosis as measured from total SUB G1 content)” value [2] was 11.8%. The “G2/5 μM” value [2] was 10.4%, the “G1/5 μM” value [2] was 49.9% and the “G2/10 μM” value [2] was 10.5%. For the same molecule, the “G1/10 μM” value [2] was 51.4%, the inhibition at 1.25 µM [3] was 0.17% and the EC50 [4] was 4340 nM.

`CN1CCN(c2cccc(NC(=O)[C@@H]3c4ccccc4C(=O)N(Cc4cccnc4)[C@H]3c3ccc(C(F)(F)F)cc3)c2)CC1` (relative stereo) [OC976] was tested, and the “% Dad” value [1] was 54%, the “A*/5 μM (apoptosis as measured from total SUB G1 content)” value [2] was 11.4% and the “A*/10 μM (apoptosis as measured from total SUB G1 content)” value [2] was 12.8%. The “G2/5 μM” value [2] was 9.3%, the “G1/5 μM” value [2] was 58.8% and the “G2/10 μM” value [2] was 16.9%. For the same molecule, the “G1/10 μM” value [2] was 53.2%, the inhibition at 1.25 µM [3] was 27.1% and the EC50 [4] was 4720 nM.

For `[NH2][Pt]([NH2])([Cl])[Cl]` [CDDP, Cisplatin, reference compound], the “% TGI (Day 44): percentage tumor growth inhibition with respect to controls” value ([5]; OC246/OC974 os 2 mg/kg/day, 4 × week, 3 cycles, CDDP i.v. q7d × 3, 6 mg/kg) was 79.2%, the “Δ% on Day 44” value ([5]; OC246/OC974 os 2 mg/kg/day, CDDP i.v. 6 mg/kg, control 100) was 14% and the “Tumor Volume Day 44 (mm^3 ± SD)” value ([5]; OC246/OC974 os daily 4 × week, 3 cycles, 2 mg/kg/day, CDDP i.v. q7d × 3, 6 mg/kg, control 1099 ± 503) was 242 ± 182 mm^3. The “Δ% Body Weight” value ([5]; between first day of treatment (day 20) and Day 44, OC246/OC974 os 2 mg/kg/day, CDDP i.v. 6 mg/kg, control +4.9) was −10.2%.

For `Nc1ccc(-c2ccc3ncc4ccc(=O)n(-c5cccc(C(F)(F)F)c5)c4c3c2)cn1` [Torin2, reference compound], the “% Inhibition” value [3] was 1.46%, the “Phosphorylation of 4E-BP1 on Ser65 and the p70S6 kinase on Thr389” value [6] was “inhibited or strongly reduced” and the “phosphorylation of AKT on Ser473” value [6] was “inhibited”.

`CCC(=O)N1CCN(c2ccc(-n3c(=O)ccc4cnc5ccc(-c6cnc7ccccc7c6)cc5c43)cc2C(F)(F)F)CC1` [Torin 1, reference compound] was tested, and the “% Inhibition” value [3] was 7.00%, the “Phosphorylation of 4E-BP1 on Ser65 and the p70S6 kinase on Thr389” value [6] was “inhibited or strongly reduced” and the “phosphorylation of AKT on Ser473” value [6] was “inhibited”.
